The source of these data is US20260216206A1 (MEDINCELL SA, priority 2023, published 2026).

A short description of data set [1]: Open-label SAD and MAD study, safety and tolerability in healthy subjects and patients (Example 5). The class given is in vivo, humans. To be noted: washout period following oral olanzapine, 4/127. Here is the method: (§1) This study was an open-label, SAD, and MAD study to evaluate the safety, tolerability, and PK of Formulation 1 in healthy subjects and patients with a diagnosis of schizophrenia or schizoaffective disorder. Healthy subjects received subtherapeutic Formulation 1 doses of up to 105 mg and patients received therapeutic doses of up to 566 mg. […] Subjects and patients who met screening eligibility were assigned to 1 of 8 active cohorts, or the Vehicle Cohort, as detailed in Table 5.1 below.
Safety was assessed during the study by evaluating AEs, clinical laboratory test results (serum, hematology, urinalysis, and prolactin), vital signs measurements, ECG, physical examination, injection site pain, local tolerability, and leakage assessment. […]
The safety endpoints in this study included incidence of adverse events, changes from baseline in ECG parameters, selected clinical laboratory values (including prolactin) and vital signs, as well as changes in neurological and clinical symptom assessments (eg, PANSS, ESRS, AIMS, BARS, CGI-S, C-SSRS), and other safety measures that were evaluated throughout the study.

The conditions of data set [2]: after oral administration; cited from earlier work.
Data set [3] can be described thus: Open-label SAD and MAD study, pharmacokinetics in healthy subjects and patients (Example 5). To be noted: oral, 2.5 to 20 mg/day for 7 days, steady-state. The class given is in vivo, humans. Here is the method:
as §1
All cohorts included assessments of safety, tolerability, and intensive PK sampling.
Except for the starting dose of 70 mg, the study followed an adaptive design in which the decision to dose-escalate with Formulation 1 was based on a review of the PK and safety data from the preceding lower dose of Formulation 1.
An extensive PK collection scheme was applied following the last oral dose to fully characterize the PK at steady-state.
In multiple-dose cohorts, the 3 doses of Formulation 1 were administered on day 1, day 29 (week 4) and day 57 (week 8), respectively.

Regarding `Cc1cc2c(s1)Nc1ccccc1N=C2N1CCN(C)CC1` [olanzapine, 2-methyl-4-(4-methyl-1-piperazinyl)-10H-thieno[2,3-b][1,5]benzodiazepine], the “Participants withdrawn due to adverse events” value in data set [1] was determined as 3.1%. For the same molecule, the Half life entry in data set [2] is “approximately 30 hours”. In data set [3], the “Systemic exposure (Cmax, AUCt,ss) versus dose” value was “dose-proportional”.
